Values after ≈ are worked out from the molar mass of the structure shown. Values joined by “and” are separate entries in the source; they are usually repeats but may differ in a detail not shown here. Equal values may be shown once. Read-outs that look alike come from different tables or passages of the source.
Tests used:
Assay type in all cases: cell-based
Candida albicans [1] = experiment: MIC by broth microdilution (CLSI M27-A3); design: polymer efficacy against budding yeasts, 50%: unit not given here; conditions: for MIC: read-out: MIC
Cryptococcus gattii [2] = experiment: MIC by broth microdilution (CLSI M27-A3); conditions: Cryptococcus gattii, […]10^3 cells/mL, read-out: MIC
Candida lusitaniae [3] = experiment: MIC by broth microdilution (CLSI M27-A3)
Candida albicans [4] = experiment: Minimum fungicidal concentration (MFC), plating after MIC assay
Cryptococcus spp. = experiment: MIC and MFC by broth microdilution, summary over Cryptococcus strains
Cryptococcus neoformans [5] = experiment: Minimum fungicidal concentration (MFC), plating after MIC assay
filamentous fungi = experiment: MIC100 against non-Aspergillus filamentous fungi (CLSI M38-A2); conditions: Cryptococcus depauperatus, CBS7855; Filobasidiella depauperata isolate CBS 7855; 50% reduction in growth
Cryptococcus neoformans [6] = experiment: MIC by broth microdilution (CLSI M27-A3); conditions: for MIC: […]10^3 cells/mL
Saccharomyces cerevisiae = experiment: MIC100 against yeast (CLSI M27-A3); conditions: Saccharomyces cerevisiae W303
Candida spp. = experiment: MIC and MFC by broth microdilution, summary over Candida strains
Candida lusitaniae [7] = experiment: Minimum fungicidal concentration (MFC), plating after MIC assay; conditions: Clavispora lusitaniae, C. Lusitania (CL3), Sensitive; RPMI 1640 (0.2% Glucose); […]10^5 cells/mL; 30° C.; read-out: MFC
Cryptococcus gattii [8] = experiment: as above; conditions: Cryptococcus gattii, Sensitive, RPMI 1640 (0.2% Glucose), […]10^3 cells/mL, 37° C., read-out: MFC

## OC(Cn1cncn1)(Cn1cncn1)c1ccc(F)cc1F [FLC, fluconazole]
Candida albicans [1]; ATCC90028, Candida albicans ATCC 90028
  MIC50: 1 µg/mL (≈ 3.27 µM)
Candida albicans [1]; C. albicans CA1, ATCC90028, Blood
  polymer efficacy against budding yeasts, 50%: 1
Candida albicans [1]; C. albicans CA2, SC5314
  polymer efficacy against budding yeasts, 50%: 0.25
Candida albicans [1]; C. albicans CA3, Blood, Azole resistant
  polymer efficacy against budding yeasts, 50%: >64
Candida albicans [1]; Candida albicans CA3, Resistance Azole
  MIC50: > 64 µg/mL
Candida albicans [1]; Candida albicans, C. albicans (E4), Amp B Resistant, RPMI 1640 (0.2% Glucose), […]10^5 cells/mL, 30° C.
  MIC: > 200 µg/mL
Candida albicans [1]; Candida albicans, C. albicans (E4), […]10^3 cells/mL, 35°C
  MIC: > 654 µM
Candida albicans [1]; Candida albicans, C. albicans (Gu5), Fluconazole Resistant, RPMI 1640 (0.2% Glucose), […]10^5 cells/mL, 30° C.
  MIC: > 200 µg/mL
Candida albicans [1]; Candida albicans, C. albicans (Gu5), […]10^3 cells/mL, 35°C
  MIC: > 654 µM
Candida albicans [1]; Candida albicans, C. albicans (K1), Fluconazole Resistant, RPMI 1640 (0.2% Glucose), […]10^5 cells/mL, 30° C.
  MIC: > 200 µg/mL
Candida albicans [1]; Candida albicans, C. albicans (K1), […]10^3 cells/mL, 35°C
  MIC: > 654 µM
Candida albicans [1]; Candida albicans, C. albicans (SCG5314), Sensitive, RPMI 1640 (0.2% Glucose), […]10^5 cells/mL, 30° C.
  MIC: < 0.2 µg/mL
Candida albicans [1]; Candida albicans, SC5314
  MIC50: 0.25 µg/mL (≈ 0.816 µM)
Candida albicans [1]; Candida albicans, SC5314, C. albicans (SC5314), […]10^3 cells/mL, 35°C
  MIC: > 654 µM
Cryptococcus gattii [2]; 48 h, C751, 30°C, OD600 48 h, Table 15
  MIC: 5.2 µM
Cryptococcus gattii [2]; 48 h, C751, 30°C, OD600 48 h
  MIC: 1.6 µg/mL
Cryptococcus gattii [2]; 48 h, WM276, 30°C, OD600 48 h, Table 15
  MIC: 2.6 µM
Cryptococcus gattii [2]; 48 h, WM276, 30°C, OD600 48 h
  MIC: 0.8 µg/mL
Cryptococcus gattii [2]; C. gattii (C751), Sensitive, RPMI 1640 (0.2% Glucose), 37° C.
  MIC: 1.6 µg/mL
Cryptococcus gattii [2]; C. gattii (C751), 30°C
  MIC: 5.2 µM
Cryptococcus gattii [2]; C. gattii (WM275), Sensitive, RPMI 1640 (0.2% Glucose), 37° C.
  MIC: 0.8 µg/mL
Cryptococcus gattii [2]; C. gattii (WM276), 30°C
  MIC: 2.6 µM
Candida lusitaniae [3]; CL3, […]10^3 cells/mL, 35°C, OD600 24 h, avg., listed as FLU
  MIC: >200 µg/mL
Candida lusitaniae [3]; CL3, […]10^3 cells/mL, 35°C, OD600 24 h, avg., listed as FLU, read-out: MIC
  MIC: >653.0 µM
Candida lusitaniae [3]; CL3, […]10^3 cells/mL, 35°C, OD600 24 h, trial 2, listed as FLU
  MIC: >200 µg/mL
Candida lusitaniae [3]; CL3, […]10^3 cells/mL, 35°C, OD600 24 h, trial 2, listed as FLU, read-out: MIC
  MIC: >653.0 µM
Candida lusitaniae [3]; CL3, […]10^5 cells/mL, 30°C, OD600 48 h, avg., listed as FLU
  MIC: 0.8 µg/mL
Candida lusitaniae [3]; CL3, […]10^5 cells/mL, 30°C, OD600 48 h, avg., listed as FLU, read-out: MIC
  MIC: 2.6 µM
Candida lusitaniae [3]; CL3, […]10^5 cells/mL, 30°C, OD600 48 h, trial 2, listed as FLU
  MIC: 0.8 µg/mL
Candida lusitaniae [3]; CL3, […]10^5 cells/mL, 30°C, OD600 48 h, trial 2, listed as FLU, read-out: MIC
  MIC: 2.6 µM
Candida lusitaniae [3]; Clavispora lusitaniae, 24 h, read-out: MIC
  MIC: > 200 µg/mL and > 653 µM
Candida lusitaniae [3]; Clavispora lusitaniae, 48 h, read-out: MIC
  MIC: 0.8 µg/mL and 2.6 µM
Candida albicans [4]; C. albicans (E4), Amp B Resistant, RPMI 1640 (0.2% Glucose), […]10^5 cells/mL, 30° C.
  MFC: >200 µg/mL
Candida albicans [4]; C. albicans (Gu5), Fluconazole Resistant, RPMI 1640 (0.2% Glucose), […]10^5 cells/mL, 30° C.
  MFC: >200 µg/mL
Candida albicans [4]; C. albicans (K1), Fluconazole Resistant, RPMI 1640 (0.2% Glucose), […]10^5 cells/mL, 30° C.
  MFC: >200 µg/mL
Candida albicans [4]; C. albicans (SCG5314), Sensitive, RPMI 1640 (0.2% Glucose), […]10^5 cells/mL, 30° C.
  MFC: >200 µg/mL
Candida albicans [4]; Candida albicans, SC5314, read-out: MFC
  MFC: > 200 µg/mL and > 653 µM
Candida albicans [4]; Candida albicans, read-out: MFC
  MFC: > 200 µg/mL and > 653 µM
Candida albicans [4]; E4, […]10^5 cells/mL, 30°C, avg., listed as FLU
  MFC: >200 µg/mL
Candida albicans [4]; E4, […]10^5 cells/mL, 30°C, avg., listed as FLU, read-out: MFC
  MFC: >653 µM
Candida albicans [4]; E4, […]10^5 cells/mL, 30°C, trial 1, listed as FLU
  MFC: >200 µg/mL
Candida albicans [4]; E4, […]10^5 cells/mL, 30°C, trial 1, listed as FLU, read-out: MFC
  MFC: >653 µM
Candida albicans [4]; E4, […]10^5 cells/mL, 30°C, trial 2, listed as FLU
  MFC: >200 µg/mL
Candida albicans [4]; E4, […]10^5 cells/mL, 30°C, trial 2, listed as FLU, read-out: MFC
  MFC: >653 µM
Candida albicans [4]; Gu5, […]10^5 cells/mL, 30°C, avg., listed as FLU
  MFC: >200 µg/mL
Candida albicans [4]; Gu5, […]10^5 cells/mL, 30°C, avg., listed as FLU, read-out: MFC
  MFC: >653 µM
Candida albicans [4]; Gu5, […]10^5 cells/mL, 30°C, trial 1, listed as FLU
  MFC: >200 µg/mL
Candida albicans [4]; Gu5, […]10^5 cells/mL, 30°C, trial 1, listed as FLU, read-out: MFC
  MFC: >653 µM
Candida albicans [4]; Gu5, […]10^5 cells/mL, 30°C, trial 2, listed as FLU
  MFC: >200 µg/mL
Candida albicans [4]; Gu5, […]10^5 cells/mL, 30°C, trial 2, listed as FLU, read-out: MFC
  MFC: >653 µM
Candida albicans [4]; K1, […]10^5 cells/mL, 30°C, avg., listed as FLU
  MFC: >200 µg/mL
Candida albicans [4]; K1, […]10^5 cells/mL, 30°C, avg., listed as FLU, read-out: MFC
  MFC: >653 µM
Candida albicans [4]; K1, […]10^5 cells/mL, 30°C, trial 2, listed as FLU
  MFC: >200 µg/mL
Candida albicans [4]; K1, […]10^5 cells/mL, 30°C, trial 2, listed as FLU, read-out: MFC
  MFC: >653 µM
Candida albicans [4]; SC5314, […]10^5 cells/mL, 30°C, avg., listed as FLU
  MFC: >200 µg/mL
Candida albicans [4]; SC5314, […]10^5 cells/mL, 30°C, avg., listed as FLU, read-out: MFC
  MFC: >653 µM
Candida albicans [4]; SC5314, […]10^5 cells/mL, 30°C, trial 1, listed as FLU
  MFC: >200 µg/mL
Candida albicans [4]; SC5314, […]10^5 cells/mL, 30°C, trial 1, listed as FLU, read-out: MFC
  MFC: >653 µM
Cryptococcus spp.; Cryptococcus
  MIC: ≤ 10 µM
Cryptococcus spp.; Cryptococcus test strains (FLC: all strains except C21F3), read-out: MFC
  MFC: > 100 µM
Cryptococcus neoformans [5]; C21F3
  concentration at which strain was killed (MFC): ~5 µM
Cryptococcus neoformans [5]; Cryptococcus neoformans, C. neoformans (C21F3), Rapamycin Resistant, RPMI 1640 (0.2% Glucose), […]10^3 cells/mL, 37° C.
  MFC: 1.6 µg/mL (≈ 5.22 µM)
Filamentous fungi
  MIC50: 64 µg/mL (≈ 209 µM)
Cryptococcus neoformans [6]
  polymer efficacy against budding yeasts, 50%: >64
Cryptococcus neoformans [6]; C. neoformans CN1, Clinical isolate, Azole susceptible
  polymer efficacy against budding yeasts, 50%: 4
Cryptococcus neoformans [6]; Cryptococcus neoformans, 48 h, C21F3, 30°C, OD600 48 h
  MIC: 1.6 µg/mL
Cryptococcus neoformans [6]; Cryptococcus neoformans, 48 h, C21F3, 30°C, OD600 48 h, Table 15
  MIC: 5.2 µM
Cryptococcus neoformans [6]; Cryptococcus neoformans, 48 h, H99, 30°C, OD600 48 h
  MIC: 3.1 µg/mL
Cryptococcus neoformans [6]; Cryptococcus neoformans, 48 h, H99, 30°C, OD600 48 h, Table 15
  MIC: 10.1 µM
Cryptococcus neoformans [6]; Cryptococcus neoformans, 48 h, JEC21, 30°C, OD600 48 h
  MIC: 1.6 µg/mL
Cryptococcus neoformans [6]; Cryptococcus neoformans, 48 h, JEC21, 30°C, OD600 48 h, Table 15
  MIC: 5.2 µM
Cryptococcus neoformans [6]; Cryptococcus neoformans, C. neoformans (C21F3), 30°C
  MIC: 5.2 µM
Cryptococcus neoformans [6]; Cryptococcus neoformans, C. neoformans (H99), Sensitive, RPMI 1640 (0.2% Glucose), 37° C.
  MIC: 3.1 µg/mL
Cryptococcus neoformans [6]; Cryptococcus neoformans, C. neoformans (H99), 30°C
  MIC: 10.1 µM
Cryptococcus neoformans [6]; Cryptococcus neoformans, C. neoformans (JEC21), Sensitive, RPMI 1640 (0.2% Glucose), 37° C.
  MIC: 1.6 µg/mL
Cryptococcus neoformans [6]; Cryptococcus neoformans, C. neoformans (JEC21), 30°C
  MIC: 5.2 µM
Cryptococcus neoformans [6]; Cryptococcus neoformans, Cryptococcus neoformans CN1
  MIC50: 4 µg/mL (≈ 13.1 µM)
Saccharomyces cerevisiae
  MIC50: < 1 µg/mL
Candida spp.; Candida resistant strains (totally resistant)
  MFC: > 654 µM
Candida spp.; Candida sensitive strains
  MIC and MFC values: low μM
Candida lusitaniae [7]
  MFC: 50 µg/mL (≈ 163 µM)
Cryptococcus gattii [8]; C. gattii (C751)
  MFC: 37.5 µg/mL (≈ 122 µM)
Cryptococcus gattii [8]; C. gattii (WM275)
  MFC: > 100 µg/mL
